Assay results as given in paper PMC9534909, “BMS794833 inhibits macrophage efferocytosis by directly binding to MERTK and inhibiting its activity” (Experimental & Molecular Medicine, 2022).
Residue numbers refer to the chain shown, from its start. pKi: −log10 of the molar value.

Columns and labels:
[1] = biological target: T1, MERTK (Homo sapiens, UniProt Q12866, K591R/K693R/K702R/K856R); test: X-ray cocrystal structure at […] Å; assay type: binding
T1 construct: kinase domain (residues 571–864), KR mutant
T1 sequence (Q12866 571-864 K591R/K693R/K702R/K856R): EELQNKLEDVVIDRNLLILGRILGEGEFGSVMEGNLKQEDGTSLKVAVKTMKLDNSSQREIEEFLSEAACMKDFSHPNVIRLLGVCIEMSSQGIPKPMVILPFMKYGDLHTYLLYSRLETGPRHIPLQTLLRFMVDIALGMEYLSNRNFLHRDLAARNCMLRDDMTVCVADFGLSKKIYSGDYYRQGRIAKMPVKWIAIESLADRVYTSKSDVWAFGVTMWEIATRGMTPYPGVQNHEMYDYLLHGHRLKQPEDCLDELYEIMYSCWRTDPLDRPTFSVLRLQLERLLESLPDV

[2] = biological target: T2, MERTK (Homo sapiens, UniProt Q12866); test: HTRF KinEASE-TK kinase kinetic assay; assay type: biochemical
T2 construct: kinase domain (residues 571–864, wild type; WT)
T2 sequence (Q12866 571-864): T1 sequence (Q12866 571-864 K591R/K693R/K702R/K856R) with R21K, R123K, R132K, R286K

Nc1nccc(Oc2ccc(NC(=O)c3c[nH]cc(-c4ccc(F)cc4)c3=O)cc2F)c1Cl [BMS794833, N-[4-(2-amino-3-chloropyridin-4-yl)oxy-3-fluorophenyl]-5-(4-fluorophenyl)-4-oxo-1H-pyridine-3-carboxamide]
X-ray cocrystal structure at 2.16 Å [1]: clear electron density map for BMS794833 showed that it occupied both the ATP-binding pocket and the allosteric back pocket | pKi [2]: 7.65
